Measured values as given in paper PMC10758931 (RSC Advances, 2024).
Values after ≈ are worked out from the molar mass of the structure shown.

Legend:
MCF-7 cell line = experiment: Cytotoxic activity; format: cell-based; details: for CC50: Homo sapiens, MCF7, read-out: LC50, MCF-7 cell line; for SI (Selectivity index = LC50 value normal cell/LC50 value cancer cell): Vero / MCF-7
normal Vero cell line = experiment: Cytotoxic activity; format: cell-based; details: MTT, mean ± standard error of three experiments

Row | Compound | CC50 (MCF-7 cell line) [µg/mL] | SI (Selectivity index = LC50 value normal cell/LC50 value cancer cell) (MCF-7 cell line) | LC50, MCF-7 cell line (MCF-7 cell line; MCF-7, MTT, mean ± standard error of three experiments) [µg/mL] | LC50, Vero (normal Vero cell line) [µg/mL]
1 | Cc1nn(-c2ccccc2)c2c1C(c1ccc(Cl)cc1)N(C(=O)c1ccncc1)N2 (stereo not drawn) [Compound 1b] | 22.1 ± 0.04 (≈ 53.1 µM) | 2.95 | – | –
2 | Cc1nn(-c2ccccc2)c2c1C(c1ccc(O)cc1)N(C(=O)c1ccncc1)N2 (stereo not drawn) [Compound 1c] | 70.1 ± 0.05 (≈ 176 µM) | 1.05 | – | –
3 | Cc1nn(-c2ccccc2)c2c1C(c1ccc([N+](=O)[O-])cc1)N(C(=O)c1ccncc1)N2 (stereo not drawn) [Compound 1d] | 91.1 ± 0.06 (≈ 214 µM) | 0.91 | – | –
4 | COc1ccc(C2c3c(C)nn(-c4ccccc4)c3NN2C(=O)c2ccncc2)cc1 (stereo not drawn) [Compound 1e] | 23.62 ± 0.02 (≈ 57.4 µM) | 3.36 | – | –
5 | Cc1nn(-c2ccccc2)c2c1C(c1ccc(N(C)C)cc1)N(C(=O)c1ccncc1)N2 (stereo not drawn) [Compound 1f] | 19.92 ± 0.01 (≈ 46.9 µM) | 4.12 | – | –
6 | CC(C)=CCCC(C)=CC1c2c(C)nn(-c3ccccc3)c2NN1C(=O)c1ccncc1 (stereo not drawn) [Compound 1g] | 30.82 ± 0.04 (≈ 72.1 µM) | – | – | –
7 | Cc1nn(-c2ccccc2)c2c1C(c1c[nH]c3ccccc13)N(C(=O)c1ccncc1)N2 (stereo not drawn) [Compound 1h] | 21.43 ± 0.03 (≈ 51 µM) | – | – | –
8 | Cc1nn(-c2ccccc2)c2c1C(c1ccco1)N(C(=O)c1ccncc1)N2 (stereo not drawn) [Compound 1i] | 26.66 ± 0.05 (≈ 71.8 µM) | – | – | –
9 | Cc1nn(-c2ccccc2)c2c1C(c1ccccn1)N(C(=O)c1ccncc1)N2 (stereo not drawn) [Compound 1j] | 57.34 ± 0.08 (≈ 150 µM) | 1.45 | – | –
10 | Cc1nn(-c2ccccc2)c2c1C(c1cncs1)N(C(=O)c1ccncc1)N2 (stereo not drawn) [Compound 1k] | 62.34 ± 0.07 (≈ 160 µM) | 1.25 | – | –
11 | COc1cccc2c1C(=O)c1c(O)c3c(c(O)c1C2=O)C[C@@](O)(C(=O)CO)C[C@@H]3O[C@H]1C[C@H](N)[C@H](O)[C@H](C)O1 [Doxorubicin, doxorubicin, reference compound] | 0.65 ± 0.01 (≈ 1.2 µM) | 32.38 | – | –
12 | (3-(4-chlorophenyl)-4-methyl-6-phenyl pyrazolo[3,4-c]pyrazol-2(1H,3H,6H)-yl)(pyridin-4-yl)methanone [Compound 1a] | – | – | 78.10 ± 0.02 | 55.02 ± 0.11
